Measurements as given in patent publication EP4810052A2, “HCRHR2 SELECTIVE POLYPEPTIDES” (Gubra A/S, priority 2023, dated 2026).
Like-named read-outs stand apart in the source and are kept apart here. Starred links: 1 amine or outer side, 2 acyl side, 3 side chain; linkers in the order of their positions; H or OH if unused. Non-standard residues stand in square brackets, D forms with d. Residues, ends and D or L forms follow the SMILES beside them. Groups on a side chain read outwards from the residue. *: point of attachment. C20 diacid = O=C(O)CCCCCCCCCCCCCCCCCCC(=O)*; γGlu = O=C(O)[C@H](CCC(=O)[*:2])N[*:1]; Nle = CCCC[C@H](N)C(=O)O; AEEA = NCCOCCOCC(=O)O; Aib = CC(C)(N)C(=O)O

Assays:
hCRHR2 = biological target: T1, hCRHR2 (Homo sapiens, UniProt Q13324); assay: HTRF cAMP assay, determination of hCRHR2 potency (peptide libraries 5 conc., purified peptides 11 conc.); type: cell-based
T1 sequence (Q13324 1-411): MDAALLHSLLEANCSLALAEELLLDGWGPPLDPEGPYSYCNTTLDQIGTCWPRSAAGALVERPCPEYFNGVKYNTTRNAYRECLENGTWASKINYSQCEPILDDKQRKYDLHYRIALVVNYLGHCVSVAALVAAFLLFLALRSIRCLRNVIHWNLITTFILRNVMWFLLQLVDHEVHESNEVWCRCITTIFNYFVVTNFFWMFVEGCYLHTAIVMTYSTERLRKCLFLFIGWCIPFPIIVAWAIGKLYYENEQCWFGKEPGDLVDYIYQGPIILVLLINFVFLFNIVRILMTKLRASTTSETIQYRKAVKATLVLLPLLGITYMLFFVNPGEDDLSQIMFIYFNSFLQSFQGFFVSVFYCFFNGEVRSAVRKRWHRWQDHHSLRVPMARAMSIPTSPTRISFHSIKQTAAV
Summary of the method: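 Frozen stocks of hCRHR2-expressing CHO-K1 cells, thawed just before testing, received peptide agonists in suspension; cAMP quantified by competitive HTRF immunoassay, with curves fitted by nonlinear regression (variable slope) for EC50.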

hCRHR1 = biological target: T2, hCRHR1 (Homo sapiens, UniProt P34998); assay: HTRF cAMP assay, determination of hCRHR1 potency (peptide libraries 5 conc., purified peptides 11 conc.); type: cell-based
T2 sequence (P34998 24-415): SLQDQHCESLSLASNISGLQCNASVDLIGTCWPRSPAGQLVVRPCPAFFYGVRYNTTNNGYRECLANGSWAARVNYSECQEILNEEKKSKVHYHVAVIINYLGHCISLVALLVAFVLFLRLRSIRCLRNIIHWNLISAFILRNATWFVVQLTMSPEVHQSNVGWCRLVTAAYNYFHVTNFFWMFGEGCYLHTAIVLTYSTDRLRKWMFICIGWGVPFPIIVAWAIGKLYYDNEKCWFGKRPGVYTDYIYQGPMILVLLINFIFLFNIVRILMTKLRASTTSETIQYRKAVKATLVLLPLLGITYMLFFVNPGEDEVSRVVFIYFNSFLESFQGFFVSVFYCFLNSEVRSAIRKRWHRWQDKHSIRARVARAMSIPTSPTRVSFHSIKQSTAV
Summary of the method: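 Cellular cAMP was read by time-resolved FRET between d2-labelled cAMP and cryptate anti-cAMP antibody. The cells were freshly thawed suspension CHO-K1 cells stably expressing human CRHR1.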

[1] = Thioflavin T fibril formation assay of purified peptides; type: physicochemical; set-up: key: Amyloid fibril formation detected by an increase in ThT fluorescence was denoted with "Yes"; samples without increasing ThT fluorescence hence not forming amyloid fibrils were denoted "No"
Procedure: Thioflavin T fibril formation assay: Peptides were dissolved as 267 µM in 50 mM phosphate buffer pH 7.5 for 2 h at room temperature on a rocking table. The samples were then divided into three replicates of 80 µl/well and mixed with 2 µl/well Thioflavin T (ThT)to a final concentration of 4 µM ThT in a black 384 well microplate with a clear bottom (Greiner #781096). The plate was inserted in a CLARIOstar Plus microplate reader (BMG Labtech) and fibril formation was measured as an increase in fluorescence emission at 480 nm (excitation at 450 nm) during 96 h at 40°C with cycles of 5 min rest and 5 min linearshaking at700 rpm.
Compounds were dissolved to 200 µM (ca 1.0 mg/ml) in 50 mM phosphate buffer with preparation and ThT assay performed as described in the "General procedure for determination of fibril formation of peptides." above. Furthermore, samples were adjusted to pH values as indicated below. Additional co-formulations of compounds with semaglutide were prepared by dissolving compounds to 200 µM in commercially available semaglutide drug product (Ozempic®); these co-formulations were adjusted to pH 7.4.

[2] = Chemical stability of purified peptides (RP-UHPLC main peak purity loss); type: physicochemical
Procedure: Chemical stability was tested at a concentration of approximately of 1.0 mg/ml peptide in the following vehicles: 50 mM phosphate buffer pH 7.5. Dissolved samples were incubated for at least 2 h at room temperature on a rocking table. The main peak purity at time zero (T0) was determined using reversed phase chromatography. The samples were incubated at 40°C for 14 days (T14) and 28 days (T28). The samples were analyzed with reversed phase chromatography and size exclusion chromatography.
Reversed Phase chromatography was performed on a Thermo Dionex Ultimate UHPLC system with UV detection at 215 nm) and equipped with a Kinetex column (1.7 µm, C8, 100 Å, 150 x 2.1 mm (00F-4499-AN)). Analysis was performed by gradient elution with buffer A (0.1% TFA in 95:5 H2O:acetonitrile) and buffer B (0.1% TFA in 5:95 H2O: acetonitrile) at a column temperature of 50 °C (gradient used 25-55%B over 40 min. Flowrate was 0.5 mL/min. The main peak purity was determined from the integrated chromatogram as the area under the main peak relative to the total peak area. The purity loss was calculated as the difference between the T0 and T14 time point and/or as the difference between the T0 and T28 time point.
The chemical stability of selected peptides was evaluated at varying pH's at 40° C over 28 days. Samples were prepared and analysed as described in procedure with the addition of pH adjusting samples to the targets indicated below. As a comparator,r commercially available semaglutide drug product (Ozempic®, Novo Nordisk) was included in the sample set.

[3] = pH 7.5
Procedure: Solubility was tested in the following vehicles: 100 mM phosphate buffer facilitating a target pH of 6.5, 7.0, and 7.5. Samples were directly dissolved in Mini-UniPrep Syringeless Filter 0.45 µm unit (Whatman). For the desired concentration, such as a concentration of 4000 µM (approximately 20 mg/mL), 1600 nmol peptide was dissolved in 400 µL vehicle. Samples were incubated for at least 1 h at room temperature on a rocking table. The pH was measured and adjusted. Samples were left on the rocking table for an additional hour before a second pH measurement and adjustment. Visual inspection was performed and noted before the filter was pushed. The concentration of peptide in the filtrate was determined using CAD (Charged Aerosol Detection), double determination was done for each sample. The measured concentration was reported in µM. Furthermore, the pH of the filtrate was measured and reported. Peptides with a measured concentration within +/-20% of target concentration are considered fully soluble.
Compounds were dissolved to a nominal concentration of 4000 µM and analysed as described above. Samples with phenol contained 5.0 mg/ml phenol.

[4] = Table 5, purified peptides, read-out: hCRHR2 EC50
[5] = Table 5, purified peptides, read-out: hCRHR1 EC50

| SMILES | Selectivity ratio (hCRHR1/ hCRHR2) (hCRHR2; Table 5) | EC50 (hCRHR2; [4]) | EC50 (hCRHR2; library peptides, matched molecular pairs L vs Nle in position X^38, read-out: Potency hCRHR2 pEC50 (converted)) | EC50 (hCRHR1; [5]) | EC50 (hCRHR1; library peptides, matched molecular pairs L vs Nle in position X^38, read-out: Potency hCRHR1 pEC50 (converted)) | Fibrillation (pH 7.5) ([1]; pH 7.5) | Chemical stability at pH 7.5 after 14 days at 40°C (% degradation) ([2]; pH 7.5, 14 days, 40°C) | Chemical stability at pH 7.5 after 28 days at 40°C (% degradation) ([2]; pH 7.5, 28 days, 40°C) | Solubility pH 7.5, target conc. =10 mg/mL (measured mg/mL) [3] | Selectivity ratio (hCRHR1/ hCRHR2) (hCRHR2; hCRHR1-EC50/hCRHR2-EC50) | EC50 (hCRHR2; purified peptides, CHO-K1 cells stably expressing hCRHR2, cAMP HTRF, read-out: hCRHR2 EC50) | EC50 (hCRHR1; purified peptides, CHO-K1 cells stably expressing hCRHR1, cAMP HTRF, read-out: hCRHR1 EC50) | Fibrillation (pH 7.5) ([1]; pH 7.5, ThT assay) | Chemical stability at pH 7.5 after 14 days at 40°C (% degradation) ([2]; pH 7.5, 40°C, 14 days, first value of cell) | Chemical stability at pH 7.5 after 28 days at 40°C (% degradation) ([2]; pH 7.5, 40°C, 28 days, second value of cell) |
| --- | --- | --- | --- | --- | --- | --- | --- | --- | --- | --- | --- | --- | --- | --- | --- |
| CCCC[C@H](NC(=O)[C@@H](NC(=O)[C@H](CCC(=O)O)NC(=O)[C@H](C)NC(=O)[C@H](CC(N)=O)NC(=O)[C@@H](NC(=O)[C@H](CCCCNC(=O)COCCOCCNC(=O)COCCOCCNC(=O)CC[C@H](NC(=O)CC[C@H](NC(=O)CCCCCCCCCCCCCCCCCCC(=O)O)C(=O)O)C(=O)O)NC(=O)[C@H](C)NC(=O)[C@H](CCC(N)=O)NC(=O)[C@H](CCC(=O)O)NC(=O)[C@H](CCCNC(=N)N)NC(=O)[C@H](C)NC(=O)[C@H](C)NC(=O)[C@H](CCCNC(=N)N)NC(=O)[C@H](C)NC(=O)[C@H](CCCNC(=N)N)NC(=O)[C@H](C)NC(=O)[C@H](CCC(N)=O)NC(=O)[C@H](CCC(=O)O)NC(=O)[C@H](CC(C)C)NC(=O)[C@H](CC(C)C)NC(=O)[C@@H](NC(=O)[C@H](CCC(N)=O)NC(=O)[C@H](CC(C)C)NC(=O)[C@H](CC(C)C)NC(=O)CNC(=O)[C@@H](NC(=O)[C@@H]1CCCN1C(=O)[C@@H](NC(=O)[C@H](CC(=O)O)NC(=O)[C@H](CC(C)C)NC(=O)[C@H](CO)NC(=O)[C@H](CC(C)C)NC(=O)[C@@H](NC(=O)[C@@H](N)[C@@H](C)CC)C(C)C)C(C)C)[C@@H](C)CC)[C@@H](C)CC)[C@@H](C)O)[C@@H](C)CC)C(=O)N[C@@H](C)C(=O)N[C@@H](CCC(=O)O)C(=O)N[C@H](C(N)=O)[C@@H](C)CC [compound 69] (H-IVLSLDVPIGLLQILLEQARARAAREQAK([AEEA-AEEA-γGlu-γGlu-C20 diacid])TNAEI[Nle]AEI-NH2) | >9259 | 0.54 nM | 0.2 nM | > 5000 nM | 3980 nM | No | -0.5% | -8.8% | 10 mg/mL | – | – | – | – | – | – |
| CC[C@H](C)[C@H](N)C(=O)N[C@H](C(=O)N[C@@H](CC(C)C)C(=O)N[C@@H](CO)C(=O)N[C@@H](CC(C)C)C(=O)N[C@@H](CC(=O)O)C(=O)N[C@H](C(=O)N1CCC[C@H]1C(=O)N[C@H](C(=O)NCC(=O)N[C@@H](CC(C)C)C(=O)N[C@@H](CC(C)C)C(=O)N[C@@H](CCC(N)=O)C(=O)N[C@H](C(=O)N[C@@H](CC(C)C)C(=O)N[C@@H](CC(C)C)C(=O)N[C@@H](CCC(=O)O)C(=O)N[C@@H](CCC(N)=O)C(=O)N[C@@H](C)C(=O)N[C@@H](CCCNC(=N)N)C(=O)N[C@@H](C)C(=O)N[C@@H](CCCNC(=N)N)C(=O)N[C@@H](C)C(=O)N[C@@H](C)C(=O)N[C@@H](CCCNC(=N)N)C(=O)N[C@@H](CCC(=O)O)C(=O)N[C@@H](CCC(N)=O)C(=O)N[C@@H](C)C(=O)N[C@@H](CCCCNC(=O)COCCOCCNC(=O)COCCOCCNC(=O)CC[C@H](NC(=O)CC[C@H](NC(=O)CCCCCCCCCCCCCCCCCCC(=O)O)C(=O)O)C(=O)O)C(=O)N[C@H](C(=O)N[C@@H](CC(N)=O)C(=O)N[C@@H](CC(C)C)C(=O)N[C@@H](CCC(=O)O)C(=O)N[C@H](C(=O)N[C@@H](CC(C)C)C(=O)N[C@@H](C)C(=O)N[C@@H](CCC(=O)O)C(=O)N[C@H](C(N)=O)C(C)C)[C@@H](C)CC)[C@@H](C)O)[C@@H](C)CC)[C@@H](C)CC)C(C)C)C(C)C [SEQ ID NO: 12] (H-IVLSLDVPIGLLQILLEQARARAAREQAK([AEEA-AEEA-γGlu-γGlu-C20 diacid])TNLEILAEV-NH2) | – | – | – | – | – | – | – | – | 9.1 mg/mL | >1136 | 4.4 nM | > 5000 nM | No | -0.6% | -1.2% |
| CCCC[C@H](NC(=O)[C@@H](NC(=O)[C@H](CCC(=O)O)NC(=O)[C@H](C)NC(=O)[C@H](CC(N)=O)NC(=O)C(C)(C)NC(=O)[C@H](CCCCNC(=O)COCCOCCNC(=O)COCCOCCNC(=O)CC[C@H](NC(=O)CC[C@H](NC(=O)CCCCCCCCCCCCCCCCCCC(=O)O)C(=O)O)C(=O)O)NC(=O)[C@H](C)NC(=O)[C@H](CCC(N)=O)NC(=O)[C@H](CCC(=O)O)NC(=O)[C@H](CCCNC(=N)N)NC(=O)[C@H](C)NC(=O)[C@H](C)NC(=O)[C@H](CCCNC(=N)N)NC(=O)[C@H](C)NC(=O)[C@H](CCCNC(=N)N)NC(=O)[C@H](C)NC(=O)[C@H](CCC(N)=O)NC(=O)[C@H](CCC(=O)O)NC(=O)[C@H](CC(C)C)NC(=O)[C@H](CC(C)C)NC(=O)[C@@H](NC(=O)[C@H](CCC(N)=O)NC(=O)[C@H](CC(C)C)NC(=O)[C@H](CC(C)C)NC(=O)CNC(=O)[C@@H](NC(=O)[C@@H]1CCCN1C(=O)[C@@H](NC(=O)[C@H](CC(=O)O)NC(=O)[C@H](CC(C)C)NC(=O)[C@H](CO)NC(=O)[C@H](CC(C)C)NC(=O)[C@@H](NC(=O)[C@@H](N)[C@@H](C)CC)C(C)C)C(C)C)[C@@H](C)CC)[C@@H](C)CC)[C@@H](C)CC)C(=O)N[C@@H](C)C(=O)N[C@@H](CCC(=O)O)C(=O)N[C@H](C(N)=O)[C@@H](C)CC [compound 236] (H-IVLSLDVPIGLLQILLEQARARAAREQAK([AEEA-AEEA-γGlu-γGlu-C20 diacid])[Aib]NAEI[Nle]AEI-NH2) | >7463 | 0.67 nM | – | > 5000 nM | – | No | -1% | -3% | 10 mg/mL | – | – | – | – | – | – |
